The test relates to axillary body odor. In words: 48-hour sniff test: reduction in body odor after single application of roll-on deodorant base formulation. The class given is in vivo, human. As to conditions: base formulation I. As for the experimental part:
To determine the reduction in body odor, the following base formulations for roll-on deodorants were used.
Various substances active against body odor were incorporated into the base formulations, for example as a further constituent of component D. These were the following substances:
To determine the reduction in body odor, the deodorizing action was carried out in the 48-hour sniff test, for which the procedure is as follows:
20 subjects are selected according to the following criteria: • female and male • at least 18 years old • nonsmokers • clinically healthy • readily detectable auxiliary body odor under both armpits
The two armpits of the subjects are preconditioned over several days, i.e. no kind of antiperspirants and deodorants are used and a pH-skin-neutral, unperfumed liquid soap is used.
On the 20 pretreated subjects, in the left or right axilla, after a sing application of 250-300 mg of the base formulation comprising active substances against body odor in the component D, three olfactory experts evaluate the axillary body odor and product scent as to intensity before and after treatment over a total of 48 hours.
The opposite axilla is not treated and serves as a standard for determining the relative intensity decrease in axillary body odor compared to the axilla which has been treated with the base formulation comprising active substances against body odor in component D.
As well as the starting value directly before the single application (after 0 hours) and the end value 48 hours after the single application, the intensity of the axillary body odor and product scent is also evaluated after 24 hours. The intensity of the body odor or perfume scent was assessed by the three olfactory experts according to the following scale: • 1=not detectable • 2=slightly detectable • 3=detectable • 4=strongly detectable • 5=very strongly detectable
Comparing the intensities of the body odor (or perfume scent) from the treated axilla and the untreated axilla gives, by virtue of the formula below, the relative intensity decrease in axillary body odor as a result of a single application of 250-300 mg of the base formulation comprising active substances against body odor in component D.

For `Cc1cc(CC(C)CC(C)(C)C)n(O)c(=O)c1` (stereo not shown) [Piroctonol], the “Result after 24 hours (relative intensity decrease in axillary body odor)” value (24 hours, 0.1% by weight, 5% by weight propylene glycol as solubilizer) is 15%. Also, the “Result after 48 hours (relative intensity decrease in axillary body odor)” value (48 hours, 0.1% by weight, 5% by weight propylene glycol as solubilizer) amounted to 10%.

As for `CCCCCCC(O)CO` (stereo not shown) [octanediol], the “Result after 24 hours (relative intensity decrease in axillary body odor)” value (24 hours after single application, 7.6% by weight) is reported as 18%. Further, for the setting “48 hours after single application, 7.6% by weight”, the “Result after 48 hours (relative intensity decrease in axillary body odor)” value is listed as 13%.

The record behind these values is patent US20140322151A1, “Use Of Isosorbide Caprylates/Caprates In Deodorants And Antiperspirants” (CLARIANT INTERNATIONAL LTD, priority 2011, published 2014).
